Results: PubChem BioAssay (NCI)
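Growth conditions: 96-well plates. Treatment: test compound, 48 hours, 5 concentrations. Analysis: linear interpolation between bracketing concentrations; unreached endpoints set to highest concentration. Here, GI50 denotes the concentration required for 50% inhibition of growth. TGI is the concentration that stops growth completely.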

How the values were obtained:
Experiment in all cases: NCI-60 cell line screen, 48 h
786-0 renal = test system: 786-0 renal
A498 renal = test system: A498 renal
A549 NSCLC = test system: A549 NSCLC
ACHN renal = test system: ACHN renal
BT-549 breast = test system: BT-549 breast
CAKI-1 renal = test system: CAKI-1 renal
CCRF-CEM leukemia = test system: CCRF-CEM leukemia
COLO 205 colon = test system: COLO 205 colon
DU-145 prostate = test system: DU-145 prostate
EKVX NSCLC = test system: EKVX NSCLC
HCC-2998 colon = test system: HCC-2998 colon
HCT-116 colon = test system: HCT-116 colon
HCT-15 colon = test system: HCT-15 colon
HL-60(TB) leukemia = test system: HL-60(TB) leukemia
HOP-62 NSCLC = test system: HOP-62 NSCLC
HOP-92 NSCLC = test system: HOP-92 NSCLC
HS 578T breast = test system: HS 578T breast
HT29 colon = test system: HT29 colon
IGROV1 ovarian = test system: IGROV1 ovarian
K-562 leukemia = test system: K-562 leukemia
KM12 colon = test system: KM12 colon
LOX IMVI melanoma = test system: LOX IMVI melanoma
M14 melanoma = test system: M14 melanoma
MALME-3M melanoma = test system: MALME-3M melanoma
MCF7 breast = test system: MCF7 breast
MDA-MB-231 breast = test system: MDA-MB-231 breast
MDA-MB-435 = test system: MDA-MB-435
MDA-N = test system: MDA-N
MOLT-4 leukemia = test system: MOLT-4 leukemia
NCI-H226 lung = test system: NCI-H226 lung
NCI-H23 lung = test system: NCI-H23 lung
NCI-H460 lung = test system: NCI-H460 lung
NCI-H522 lung = test system: NCI-H522 lung
NCI/ADR-RES ovarian = test system: NCI/ADR-RES ovarian
OVCAR-3 ovarian = test system: OVCAR-3 ovarian
OVCAR-4 ovarian = test system: OVCAR-4 ovarian
OVCAR-5 ovarian = test system: OVCAR-5 ovarian
OVCAR-8 ovarian = test system: OVCAR-8 ovarian
PC-3 prostate = test system: PC-3 prostate
RPMI-8226 leukemia = test system: RPMI-8226 leukemia
RXF 393 renal = test system: RXF 393 renal
SF-268 CNS = test system: SF-268 CNS
SF-295 CNS = test system: SF-295 CNS
SF-539 CNS = test system: SF-539 CNS
SK-MEL-2 melanoma = test system: SK-MEL-2 melanoma
SK-MEL-28 melanoma = test system: SK-MEL-28 melanoma
SK-MEL-5 melanoma = test system: SK-MEL-5 melanoma
SK-OV-3 ovarian = test system: SK-OV-3 ovarian
SN12C renal = test system: SN12C renal
SNB-19 CNS = test system: SNB-19 CNS
SR leukemia = test system: SR leukemia
SW-620 colon = test system: SW-620 colon
T-47D breast = test system: T-47D breast
TK-10 renal = test system: TK-10 renal
U251 CNS = test system: U251 CNS
UACC-257 melanoma = test system: UACC-257 melanoma
UACC-62 melanoma = test system: UACC-62 melanoma
UO-31 renal = test system: UO-31 renal
SNB-75 CNS = test system: SNB-75 CNS

With `O=C(O)CCCCCNC(=O)CCC(CN(CC(=O)OCc1ccccc1)CC(=O)OCc1ccccc1)N(CC(=O)OCc1ccccc1)CC(=O)OCc1ccccc1` (stereo not drawn) the TGI (786-0 renal) was 34.1 µM, the TGI (A498 renal) was 32.2 µM and the TGI (A549 NSCLC) was 33.2 µM. The TGI (ACHN renal) was 32 µM, the TGI (BT-549 breast) was 33.1 µM and the TGI (CAKI-1 renal) was 33.3 µM. It also gave a TGI (CCRF-CEM leukemia) of 39.7 µM, a TGI (COLO 205 colon) of 33.7 µM and a TGI (DU-145 prostate) of 33.7 µM. The TGI (EKVX NSCLC) was 49 µM, the TGI (HCC-2998 colon) was 30.5 µM and the TGI (HCT-116 colon) was 31.2 µM. It also gave a TGI (HCT-15 colon) of 34.6 µM, a TGI (HL-60(TB) leukemia) of 32.8 µM and a TGI (HOP-62 NSCLC) of 41 µM. It also gave a TGI (HOP-92 NSCLC) of 31.1 µM, a TGI (HS 578T breast) of 41.9 µM and a TGI (HT29 colon) of 33.7 µM. The TGI (IGROV1 ovarian) was 33.8 µM, the TGI (K-562 leukemia) was 30.6 µM and the TGI (KM12 colon) was 36.9 µM. It also gave a TGI (LOX IMVI melanoma) of 38.3 µM, a TGI (M14 melanoma) of 32.3 µM and a TGI (MALME-3M melanoma) of 39.5 µM. It also gave a TGI (MCF7 breast) of 36.2 µM, a TGI (MDA-MB-231 breast) of 38.6 µM and a TGI (MDA-MB-435) of 35.4 µM. For the same compound, the TGI (MDA-N) was 34.8 µM, the TGI (MOLT-4 leukemia) was 37.2 µM and the TGI (NCI-H226 lung) was 54.2 µM. The TGI (NCI-H23 lung) was 35 µM, the TGI (NCI-H460 lung) was 55.7 µM and the TGI (NCI-H522 lung) was 42.1 µM. It also gave a TGI (NCI/ADR-RES ovarian) of 43.1 µM, a TGI (OVCAR-3 ovarian) of 33.9 µM and a TGI (OVCAR-4 ovarian) of 32.5 µM. It also gave a TGI (OVCAR-5 ovarian) of 32.6 µM, a TGI (OVCAR-8 ovarian) of 30.1 µM and a TGI (PC-3 prostate) of 32.4 µM. For the same compound, the TGI (RPMI-8226 leukemia) was 31.9 µM, the TGI (RXF 393 renal) was 28.9 µM and the TGI (SF-268 CNS) was 43.3 µM. It also gave a TGI (SF-295 CNS) of 32.2 µM, a TGI (SF-539 CNS) of 37.9 µM and a TGI (SK-MEL-2 melanoma) of 32 µM. For the same compound, the TGI (SK-MEL-28 melanoma) was 33.7 µM, the TGI (SK-MEL-5 melanoma) was 32.2 µM and the TGI (SK-OV-3 ovarian) was 26.1 µM. For the same compound, the TGI (SN12C renal) was 36.2 µM, the TGI (SNB-19 CNS) was 32.9 µM and the TGI (SR leukemia) was 42 µM. The TGI (SW-620 colon) was 45.3 µM, the TGI (T-47D breast) was 36.9 µM and the TGI (TK-10 renal) was 29.9 µM. It also gave a TGI (U251 CNS) of 46.6 µM, a TGI (UACC-257 melanoma) of 33.1 µM and a TGI (UACC-62 melanoma) of 30.4 µM. It also gave a TGI (UO-31 renal) of 29.3 µM.
`CC(=O)CC(=O)Nn1c(-c2cccs2)nc2ccc(I)cc2c1=O` was tested, and the TGI (786-0 renal) was > 100 µM, the GI50 (A498 renal) was 19.9 µM and the TGI (A498 renal) was 43.1 µM. The TGI (A549 NSCLC) was > 100 µM, the TGI (ACHN renal) was > 100 µM and the TGI (BT-549 breast) was > 71 µM. For the same compound, the TGI (CAKI-1 renal) was > 74 µM, the TGI (CCRF-CEM leukemia) was > 100 µM and the TGI (COLO 205 colon) was > 100 µM. The TGI (DU-145 prostate) was > 96.6 µM, the TGI (EKVX NSCLC) was > 66.1 µM and the TGI (HCC-2998 colon) was > 67.4 µM. The TGI (HCT-116 colon) was > 100 µM, the TGI (HCT-15 colon) was > 100 µM and the TGI (HL-60(TB) leukemia) was > 100 µM. For the same compound, the TGI (HOP-62 NSCLC) was > 100 µM, the TGI (HOP-92 NSCLC) was > 100 µM and the GI50 (HS 578T breast) was 18.9 µM. For the same compound, the TGI (HS 578T breast) was 71.3 µM, the TGI (HT29 colon) was > 100 µM and the TGI (IGROV1 ovarian) was > 100 µM. For the same compound, the TGI (K-562 leukemia) was > 100 µM, the TGI (KM12 colon) was > 100 µM and the TGI (LOX IMVI melanoma) was > 90 µM. The TGI (M14 melanoma) was > 100 µM, the TGI (MALME-3M melanoma) was > 93.2 µM and the TGI (MCF7 breast) was > 100 µM. For the same compound, the GI50 (MDA-MB-231 breast) was 16.4 µM, the TGI (MDA-MB-231 breast) was 63.7 µM and the TGI (MDA-MB-435) was > 100 µM. The TGI (MDA-N) was > 100 µM, the TGI (MOLT-4 leukemia) was > 100 µM and the TGI (NCI-H226 lung) was > 76.4 µM. The TGI (NCI-H23 lung) was > 100 µM, the TGI (NCI-H460 lung) was > 100 µM and the TGI (NCI-H522 lung) was > 87.5 µM. The TGI (NCI/ADR-RES ovarian) was > 94.4 µM, the TGI (OVCAR-3 ovarian) was > 78.5 µM and the TGI (OVCAR-4 ovarian) was > 100 µM. For the same compound, the TGI (OVCAR-5 ovarian) was > 100 µM, the TGI (OVCAR-8 ovarian) was > 100 µM and the TGI (PC-3 prostate) was > 100 µM. The TGI (RPMI-8226 leukemia) was > 100 µM, the TGI (RXF 393 renal) was > 100 µM and the TGI (SF-268 CNS) was > 100 µM. For the same compound, the TGI (SF-295 CNS) was > 100 µM, the GI50 (SF-539 CNS) was 13.8 µM and the TGI (SF-539 CNS) was 34.4 µM. The TGI (SK-MEL-2 melanoma) was > 100 µM, the TGI (SK-MEL-28 melanoma) was > 100 µM and the TGI (SK-MEL-5 melanoma) was > 65.5 µM. The TGI (SK-OV-3 ovarian) was > 100 µM, the TGI (SN12C renal) was > 100 µM and the TGI (SNB-19 CNS) was > 100 µM. The TGI (SNB-75 CNS) was > 100 µM, the TGI (SR leukemia) was > 100 µM and the TGI (SW-620 colon) was > 100 µM. For the same compound, the TGI (T-47D breast) was > 100 µM, the TGI (TK-10 renal) was > 100 µM and the TGI (U251 CNS) was > 100 µM. For the same compound, the TGI (UACC-257 melanoma) was > 100 µM, the TGI (UACC-62 melanoma) was > 85 µM and the TGI (UO-31 renal) was > 91.3 µM.
For `COC(=O)[C@H]1ON2O[C@H](OC3CCCC[C@@H]3c3ccccc3)C[C@@H]3CC[C@H]1[C@@]32C` (stereo partly drawn), the TGI (786-0 renal) was > 100 µM, the TGI (A498 renal) was > 100 µM and the TGI (A549 NSCLC) was > 100 µM. The TGI (ACHN renal) was > 100 µM, the TGI (BT-549 breast) was > 100 µM and the TGI (CAKI-1 renal) was > 100 µM. The TGI (CCRF-CEM leukemia) was > 100 µM, the TGI (COLO 205 colon) was > 100 µM and the TGI (DU-145 prostate) was > 100 µM. The TGI (EKVX NSCLC) was > 100 µM, the TGI (HCC-2998 colon) was > 100 µM and the TGI (HCT-116 colon) was > 100 µM. The TGI (HCT-15 colon) was > 100 µM, the TGI (HL-60(TB) leukemia) was 98.5 µM and the TGI (HOP-62 NSCLC) was > 100 µM. The TGI (HOP-92 NSCLC) was > 100 µM, the TGI (HS 578T breast) was > 100 µM and the TGI (HT29 colon) was > 100 µM. The TGI (IGROV1 ovarian) was > 100 µM, the TGI (K-562 leukemia) was > 100 µM and the TGI (KM12 colon) was > 100 µM. The TGI (LOX IMVI melanoma) was > 100 µM, the TGI (M14 melanoma) was > 100 µM and the TGI (MALME-3M melanoma) was > 100 µM. The TGI (MCF7 breast) was > 100 µM, the TGI (MDA-MB-231 breast) was > 100 µM and the TGI (MDA-MB-435) was > 100 µM. For the same compound, the TGI (MDA-N) was > 100 µM, the TGI (MOLT-4 leukemia) was > 100 µM and the TGI (NCI-H226 lung) was > 100 µM. The TGI (NCI-H23 lung) was > 100 µM, the TGI (NCI-H460 lung) was > 100 µM and the TGI (NCI-H522 lung) was > 100 µM. For the same compound, the TGI (NCI/ADR-RES ovarian) was > 100 µM, the TGI (OVCAR-4 ovarian) was > 100 µM and the TGI (OVCAR-5 ovarian) was > 100 µM. For the same compound, the TGI (OVCAR-8 ovarian) was > 100 µM, the TGI (PC-3 prostate) was > 100 µM and the TGI (RPMI-8226 leukemia) was > 100 µM. The TGI (RXF 393 renal) was > 100 µM, the TGI (SF-268 CNS) was > 100 µM and the TGI (SF-295 CNS) was > 100 µM. For the same compound, the TGI (SK-MEL-2 melanoma) was > 100 µM, the TGI (SK-MEL-28 melanoma) was > 100 µM and the TGI (SK-MEL-5 melanoma) was > 100 µM. The TGI (SK-OV-3 ovarian) was > 100 µM, the TGI (SN12C renal) was > 100 µM and the TGI (SNB-19 CNS) was > 100 µM. The TGI (SNB-75 CNS) was > 100 µM, the TGI (SR leukemia) was > 100 µM and the TGI (SW-620 colon) was > 100 µM. The TGI (T-47D breast) was > 100 µM, the TGI (TK-10 renal) was > 100 µM and the TGI (U251 CNS) was > 100 µM. The TGI (UACC-257 melanoma) was > 100 µM, the TGI (UACC-62 melanoma) was > 100 µM and the TGI (UO-31 renal) was > 100 µM.
